Molecular target: T1, human PDE4B1 (Homo sapiens (Human), UniProt Q07343)
Assay: cAMP HTRF assay to determine the activity of hPDE4B1
Assay type: biochemical
Conditions: IC50 inhibition of PDE4B; human recombinant PDE4B1, cAMP HTRF assay
Summary of the method: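 Recombinant human PDE4B1 expressed in Sf9 cells (4.8 U) was incubated with 40 nM cAMP for 30 min at room temperature in Tris buffer, pH 7.8, with MgCl2, DTT and Tween 20. HTRF detection of remaining cAMP followed, with 1 mM IBMX stop, read 60 min later as the 665/620 nm ratio. Results are % inhibition versus control.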

T1 sequence (Q07343 whole entry): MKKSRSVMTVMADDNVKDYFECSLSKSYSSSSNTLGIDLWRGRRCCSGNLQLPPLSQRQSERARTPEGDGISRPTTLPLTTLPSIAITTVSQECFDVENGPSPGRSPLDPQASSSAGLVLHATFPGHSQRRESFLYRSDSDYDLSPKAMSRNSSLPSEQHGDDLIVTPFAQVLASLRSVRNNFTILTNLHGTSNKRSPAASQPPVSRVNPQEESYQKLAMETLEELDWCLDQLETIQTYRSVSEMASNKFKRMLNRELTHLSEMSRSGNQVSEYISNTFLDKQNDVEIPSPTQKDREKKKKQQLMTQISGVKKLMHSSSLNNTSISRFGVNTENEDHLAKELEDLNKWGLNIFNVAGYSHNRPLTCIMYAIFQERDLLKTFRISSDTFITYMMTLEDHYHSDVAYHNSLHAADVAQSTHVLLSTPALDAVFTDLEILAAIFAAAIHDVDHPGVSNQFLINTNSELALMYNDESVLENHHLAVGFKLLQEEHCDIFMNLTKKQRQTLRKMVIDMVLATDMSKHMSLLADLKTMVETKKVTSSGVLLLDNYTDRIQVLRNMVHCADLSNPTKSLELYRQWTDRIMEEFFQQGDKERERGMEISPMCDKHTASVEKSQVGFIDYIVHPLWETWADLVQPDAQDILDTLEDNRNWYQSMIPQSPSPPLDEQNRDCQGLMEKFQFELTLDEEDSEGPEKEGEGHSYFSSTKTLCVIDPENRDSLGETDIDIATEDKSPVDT

Question: For `O=C(c1ccc2c(c1)N(c1ncc(-c3ccccc3F)cn1)CC21CC1)N1CC2CC1CN2CCO` (stereo not drawn) [Compound 218, [1-[5-(2-Fluorophenyl)-pyrimidin-2-yl]-spiro[1,2-dihydro-indole-3,1′-cyclopropane]-6-yl]-[5-(2-hydroxy-ethyl)-2,5-diazabicyclo[2.2.1]heptan-2-yl]-methanone], which IC50 is on record?
Answer: 0.1 to 1 µM

Question: Which IC50 does the source give for “Morpholin-4-yl-[1-(5-pyridazin-3-yl-pyrimidin-2-yl)-spiro[1,2-di-hydro-indole-3,1′-cyclopropane]-6-yl]-methanone [Compound 191]” here?
Answer: < 0.1 µM

Question: How did the IC50 turn out when “Morpholin-4-yl-[1-(5-pyridazin-4-yl-pyrimidin-2-yl)-spiro[1,2-dihydro-indole-3,1′-cyclopropane]-6-yl]-methanone [Compound 200]” was run?
Answer: < 0.1 µM

Question: Which IC50 does the source give for “Morpholin-4-yl-[1-(5-pyrimidin-4-yl-pyrimidin-2-yl)-spiro[1,2-di-hydro-indole-3,1′-cyclopropane]-6-yl]-methanone [Compound 190]” here?
Answer: < 0.1 µM

Question: How did the IC50 turn out when “Morpholin-4-yl-[1-[5-[4-(trifluoromethyl)-pyridin-2-yl]-pyrimidin-2-yl]-spiro[1,2-dihydro-indole-3,1′-cyclopropane]-6-yl]-methanone [Compound 195]” was run?
Answer: < 0.1 µM

Question: “N-(2-Hydroxy-ethyl)-1-[5-(3-methoxyphenyl)-pyrimidin-2-yl]-N-methyl-spiro[1,2-dihydro-indole-3,1′-cyclopropane]-6-carboxylic acid amide [Compound 197]” was tested. Which IC50 did it give?
Answer: < 0.1 µM

Question: For “N-[(3R)-1-[1-(5-Phenyl-pyrimidin-2-yl)-spiro[1,2-di-hydro-indole-3,1′-cyclopropane]-6-carbonyl]-pyrrolidin-3-yl]-acetamide [Compound 203]”, which IC50 is on record?
Answer: 1 to 10 µM

Question: For “[1-[5-(1-Cyclopropyl-phenyl)-pyrimidin-2-yl]-spiro[1,2-dihydro-indole-3,1′-cyclopropane]-6-yl]-piperazin-1-yl-methanone [Compound 70]”, which IC50 is on record?
Answer: 0.1 to 1 µM

Question: For “[1-[5-(1-Fluorophenyl)-pyrimidin-2-yl]-spiro[1,2-dihydro-indole-3,1′-cyclopropane]-6-yl]-pyrrolidin-1-yl-methanone [Compound 3]”, which IC50 is on record?
Answer: < 0.1 µM

Question: How did the IC50 turn out when “[1-[5-(2-Fluorophenyl)-pyrimidin-2-yl]-spiro[1,2-dihydro-pyrrolo[2,3-b]pyridine-3,1′-cyclobutane]-6-yl]-morpholin-4-yl-methanone [Compound 171]” was run?
Answer: 0.1 to 1 µM

Question: “[1-[5-(2-Methyl-pyrimidin-4-yl)-pyrimidin-2-yl]-spiro[1,2-dihydro-indole-3,1′-cyclopropane]-6-yl]-morpholin-4-yl-methanone [Compound 185]” was tested. Which IC50 did it give?
Answer: < 0.1 µM

Question: How did the IC50 turn out when “[1-[5-(4-Amino-pyridin-2-yl)-pyrimidin-2-yl]-spiro[1,2-dihydro-indole-3,1′-cyclopropane]-6-yl]-morpholin-4-yl-methanone [Compound 181]” was run?
Answer: < 0.1 µM

Question: “[1-[5-(4-Fluoro-pyridin-2-yl)-pyrimidin-2-yl]-spiro[1,2-dihydro-indole-3,1′-cyclopropane]-6-yl]-morpholin-4-yl-methanone [Compound 187]” was tested. Which IC50 did it give?
Answer: < 0.1 µM

Question: With “[1-[5-(6-Chloro-pyrimidin-4-yl)-pyrimidin-2-yl]-spiro[1,2-dihydro-indole-3,1′-cyclopropane]-6-yl]-morpholin-4-yl-methanone [Compound 206]” as the compound, how does the IC50 read?
Answer: < 0.1 µM

Question: “[1-[5-(6-Fluoro-pyrimidin-4-yl)-pyrimidin-2-yl]-spiro[1,2-dihydro-indole-3,1′-cyclopropane]-6-yl]-morpholin-4-yl-methanone [Compound 205]” was tested. Which IC50 did it give?
Answer: < 0.1 µM

Question: How did the IC50 turn out when “[1-[5-(6-Methoxy-pyridazin-3-yl)-pyrimidin-2-yl]-spiro[1,2-dihydro-indole-3,1′-cyclopropane]-6-yl]-morpholin-4-yl-methanone [Compound 201]” was run?
Answer: < 0.1 µM

Question: How did the IC50 turn out when “[1-[5-(6-Methyl-pyridazin-3-yl)-pyrimidin-2-yl]-spiro[1,2-dihydro-indole-3,1′-cyclopropane]-6-yl]-morpholin-4-yl-methanone [Compound 196]” was run?
Answer: < 0.1 µM

Question: Which IC50 does the source give for “[1-[5-(6-Methyl-pyridin-2-yl)-pyrimidin-2-yl]-spiro[1,2-dihydro-indole-3,1′-cyclopropane]-6-yl]-morpholin-4-yl-methanone [Compound 186]” here?
Answer: < 0.1 µM

Molecular target: T1, human PDE4B1
Assay: TR-FRET assay using the LANCE Ultra cAMP kit to determine the activity of hPDE4B1
Assay type: biochemical
Conditions: IC50 inhibition of PDE4B, mean
Description: TR-FRET Assay Using the LANCE® Ultra cAMP Kit to Determine the Activity of hPDE4B1
The effects of the compounds on the activity of the human PDE4B1 was quantified by measuring the production of 5′AMP from cAMP using a human recombinant enzyme expressed in Sf9 cells and the LANCE® Ultra cAMP kit, a TR-FRET detection method from PerkinElmer. The human PDE4B1 enzyme was purchased from SignalChem Lifesciences (Catalog# P92-31BG, Lot# H296-2).
The test compound, reference compound or water (control) was mixed with the enzyme (0.96 U) in a reaction buffer containing 50 mM Tris-HCl, 50 mM MgCl2 and 5 mM DTT (pH 8.5). Thereafter, the reaction was initiated by addition of 500 nM cAMP (substrate) and the mixture was incubated for 30 minutes at room temperature. For control basal measurements, the enzyme was omitted from the reaction mixture. After 30 minutes, the reaction was stopped and diluted by a factor of 100 with the reaction buffer supplemented with 500 μM IBMX. The fluorescence donor (europium chelate-labeled cAMP) and the fluorescence acceptor (anti-cAMP antibody labeled with the ULight™ dye) were then added together with 500 μM IBMX to a 10 μl aliquot. After 60 minutes, the fluorescence transfer corresponding to the amount of residual cAMP was measured at λex=337 nm, λem=620 nm and λem=665 nm using a microplate reader (PHERAstar, BMG). The enzyme activity was determined by dividing the signal measured at 665 nm by that measured at 620 nm (ratio) multiplied by 10000. The results were expressed as percent inhibition of the control enzyme activity. IC50 values (IC50=concentration causing a half-maximal inhibition of control specific activity) were derived from dose response measurements with ten different concentrations (n=3; N=1-3).
Several compounds according to the invention are tested with above mentioned assay.

Question: Which IC50 does the source give for `CN(CCO)C(=O)c1ccc2c(c1)N(c1ncc(-c3ccc4c(c3)OCO4)cn1)CC21CC1` [Compound 219, 1-[5-(1,3-Benzodioxol-5-yl)-pyrimidin-2-yl]-N-(2-hydroxy-ethyl)-N-methyl-spiro[1,2-dihydro-indole-3,1′-cyclopropane]-6-carboxylic acid amide] here?
Answer: < 0.1 µM

Question: With `O=C(c1ccc2c(c1)N(c1ncc(-c3ccccc3F)cn1)CC21CC1)N1C[C@H]2C[C@@H]1CN2` [Compound 220, [(1R,4R)-2,5-Diazabicyclo[2.2.1]heptan-2-yl]-[1-[5-(2-fluorophenyl)-pyrimidin-2-yl]spiro[1,2-dihydro-indole-3,1′-cyclopropane]-6-yl]-methanone] as the compound, how does the IC50 read?
Answer: 0.1 to 1 µM

Question: With `O=C(c1ccc2c(c1)N(c1ncc(-c3ccccc3F)cn1)CC21CC1)N1C[C@@H]2C[C@H]1CN2` [Compound 221, [(1S,4S)-2,5-Diazabicyclo[2.2.1]heptan-2-yl]-[1-[5-(2-fluorophenyl)-pyrimidin-2-yl]-spiro[1,2-dihydro-indole-3,1′-cyclopropane]-6-yl]-methanone] as the compound, how does the IC50 read?
Answer: < 0.1 µM

Question: For `Cc1ccnc(-c2cnc(N3CC4(CC4)c4ccc(C(=O)N5CCNC(=O)C5)cc43)nc2)c1` [Compound 222, 4-[1-[5-(4-Methyl-pyridin-2-yl)-pyrimidin-2-yl]-spiro[1,2-dihydro-indole-3,1′-cyclopropane]-6-carbonyl]-piperazin-2-one], which IC50 is on record?
Answer: < 0.1 µM

Question: For `O=C(c1ccc2c(c1)N(c1ncc(-c3cccc(F)c3)cn1)CC21CC1)N1CC2CC1CN2` (stereo not drawn) [Compound 223, (2,5-Diazabicyclo[2.2.1]heptan-2-l)-[1-[5-(3-fluorophenyl)-pyrimidin-2-yl]-spiro[1,2-dihydro-indole-3,1′-cyclopropane]-6-yl]-methanone], which IC50 is on record?
Answer: < 0.1 µM

Question: How did the IC50 turn out when `COc1ccnc(-c2cnc(N3CC4(CC4)c4ccc(C(=O)N(C)CCO)cc43)nc2)c1` [Compound 224, N-(2-hydroxyethyl)-1′-(5-(4-methoxypyridin-2-yl)pyrimidin-2-yl)-N-methylspiro[cyclopropane-1,3′-indoline]-6′-carboxamide] was run?
Answer: < 0.1 µM

Question: Which IC50 does the source give for `CN(CCO)C(=O)c1ccc2c(c1)N(c1ncc(-c3cccc(F)c3F)cn1)CC21CC1` [Compound 225, 1-[5-(2,3-Difluoro-phenyl)-pyrimidin-2-yl]-N-(2-hydroxy-ethyl)-N-methyl-spiro[1,2-dihydro-indole-3,1′-cyclopropane]-6-carboxylic acid amide] here?
Answer: < 0.1 µM

Question: `O=C(c1ccc2c(c1)N(c1ncc(-c3ccccc3F)cn1)CC21CC1)N1CCC2(CCCN2)C1` (stereo not drawn) [Compound 226, (1,-Diazaspiro[4.4]nonan-7-yl)-[1-[5-(2-fluorophenyl)-pyrimidin-2-yl]-spiro[1,2-dihydro-indole-3,1′-cyclopropane]-6-yl]-methanone] was tested. Which IC50 did it give?
Answer: 0.1 to 1 µM

Question: With `Cc1ccc(F)c(-c2cnc(N3CC4(CC4)c4ccc(C(=O)N(C)CCO)cc43)nc2)c1` [Compound 227, 1-[5-(2-Fluoro-5-methyl-phenyl)-pyrimidin-2-yl]-N-(2-hydroxy-ethyl)-N-methyl-spiro[1,2-dihydro-indole-3,1′-cyclopropane]-6-carboxylic acid amide] as the compound, how does the IC50 read?
Answer: < 0.1 µM

Question: Which IC50 does the source give for `CN(CCO)C(=O)c1ccc2c(c1)N(c1ncc(-c3cc(N)ccc3F)cn1)CC21CC1` [Compound 228, 1-[5-(5-Amino-2-fluoro-phenyl)-pyrimidin-2-yl]-N-(2-hydroxy-ethyl)-N-methyl-spiro[1,2-dihydro-indole-3,1′-cyclopropane]-6-carboxylic acid amide] here?
Answer: < 0.1 µM

Question: `CN(CCO)C(=O)c1ccc2c(c1)N(c1ncc(-c3ccccn3)cn1)CC21CC1` [Compound 229, N-(2-Hydroxy-ethyl)-N-methyl-1-(5-pyridin-2-yl-pyrimidin-2-yl)-spiro[1,2-dihydro-indole-3,1′-cyclopropane]-6-carboxylic acid amide] was tested. Which IC50 did it give?
Answer: < 0.1 µM

Question: `CN(CCO)C(=O)c1ccc2c(c1)N(c1ncc(-c3cccc(F)n3)cn1)CC21CC1` [Compound 230, 1-[5-(6-Fluoro-pyridin-2-yl)-pyrimidin-2-yl]-N-(2-hydroxy-ethyl)-N-methyl-spiro[1,2-dihydro-indole-3,1′-cyclopropane]-6-carboxylic acid amide] was tested. Which IC50 did it give?
Answer: < 0.1 µM
